Results: patent publication US9302991B2, “Arylamide derivatives as TTX-S blockers” (RaQualia Pharma Inc., priority 2010, dated 2016)

Columns and labels:
Assay type in all cases: cell-based
[1] = target: T1, human Nav1.5 channels (Homo sapiens, UniProt Q14524); assay: FRET assay, human Nav1.5 (EFS on FDSS); conditions: HEK293 cells expressing human Nav1.5, read-out: activities against Nav1.5
T1 construct: expressed in transfected cells; host or cells: HEK293
Method: The inhibitory activities of compounds against voltage gated sodium channels are determined by methodology well known in the art.
The ability of the aryl substituted carboxamide derivatives of the formula (I) to inhibit the NaV1.3, Nav1.7 and Nav1.5 channels is measured by Fluorescence Resonance Energy Transfer (FRET) assay and electrophysiology assay described below.
This screen is used to determine the effects of compounds on human Nav1.3, human Nav1.7, and human Nav1.5 channels, utilising electrical field stimulation (EFS) system in 96-well plate format on FDSS (Hamamatsu Photonics) platform. The change of membrane potential is monitored with FRET dye pair, oxonol (DiSBAC2(3)) and coumarin (CC2-DMPE).
Each HEK293 cells expressing human Nav1.3 channels and HEK293 cells expressing human Nav1.5 channels are grown in T225 flasks, in a 5% CO2 humidified incubator to about 80% confluence. Media composition consists of Dulbecco's Modified Eagle Medium (high glucose), 10% FCS, 100 units/mL Penicillin, 100 microgram/mL Streptomycin and 500 microgram/mL Geneticine. […]
The data are analyzed and reported as normalized ratios of intensities measured at […]. […]
This analysis is performed using a computerized specific program designed for FDSS generated data. Fluorescence ratio values are plotted using XLfit to determine an IC50 value for each compound.

[2] = target: T2, human Nav1.3 channels (Homo sapiens, UniProt Q9NY46); assay: FRET assay, human Nav1.3 (EFS on FDSS); conditions: HEK293 cells expressing human Nav1.3, read-out: IC50 against Nav1.3
T2 construct: expressed in transfected cells; host or cells: HEK293
Outline: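 HEK293 cells expressing the channel, loaded with 10 microM CC2-DMPE then 15 microM DiSBAC2(3) plus 0.555 mM VABSC-1 in pH 7.4 HEPES buffer at room temperature. Membrane potential changes evoked by electrical field stimulation after compound addition; IC50 from 440 nm-normalized FRET ratios.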

[3] = target: T3, human Nav1.3 (hSCN3A) (Homo sapiens, UniProt Q9NY46); assay: Electrophysiology assay for Navs, whole cell patch clamp, Nav1.3; conditions: Kinact, dissociation constant for the inactivated state, read-out: activities (Ki) against Nav1.3
T3 construct: expressed in transfected cells; host or cells: HEK293
Method: Electrophysiology Assay for Navs
Whole cell patch clamp recording is used to assess the efficacy or selectivity of Na channel blocker on human Nav1.3 (hSCN3A) expressing HEK293 cells or human Nav1.7 (hSCN9A) expressing CHO cells. Human Nav1.3 expressing HEK293 cells are grown in growth media which comprised: DMEM, 10% heat-inactivated FBS (Hyclone Laboratories Inc), 100 microgram/mL Penicillin/100 U/mL Streptomycin, 150 microgram/mL Zeocin, 3 microgram/mL Geneticin. Human Nav1.7 expressing CHO cells are grown in growth media which comprised: HAM/F-12, 9% heat-inactivated FBS (Hyclone Laboratories Inc), 100 microgram/mL Penicillin/100 U/mL Streptomycin, 100 microgram/mL Hygromycin.
Na channel expressing cells are dissociated by 0.05% Trypsine-EDTA, and then seeded on cover glass for 24-48 hr. […]
The normalized steady-state inactivation curve is constructed using 2 sec (for vehicle) or 60 sec (for drugs) conditioning pulse to different potentials followed immediately by the test pulse to −10 mV. […] The affinity of drugs to resting state of Na channels (Kresting or Kr) is assessed by 30 msec test pulse from a negative holding potential of −120 or −130 mV, where virtually all channels are in the resting state. Kr value is calculated by a conventional 1:1 binding model: Kresting(Kr)={[drug]Imax,drug/(Imax,control−Imax,drug)} […]

T3 sequence (Q9NY46 whole entry): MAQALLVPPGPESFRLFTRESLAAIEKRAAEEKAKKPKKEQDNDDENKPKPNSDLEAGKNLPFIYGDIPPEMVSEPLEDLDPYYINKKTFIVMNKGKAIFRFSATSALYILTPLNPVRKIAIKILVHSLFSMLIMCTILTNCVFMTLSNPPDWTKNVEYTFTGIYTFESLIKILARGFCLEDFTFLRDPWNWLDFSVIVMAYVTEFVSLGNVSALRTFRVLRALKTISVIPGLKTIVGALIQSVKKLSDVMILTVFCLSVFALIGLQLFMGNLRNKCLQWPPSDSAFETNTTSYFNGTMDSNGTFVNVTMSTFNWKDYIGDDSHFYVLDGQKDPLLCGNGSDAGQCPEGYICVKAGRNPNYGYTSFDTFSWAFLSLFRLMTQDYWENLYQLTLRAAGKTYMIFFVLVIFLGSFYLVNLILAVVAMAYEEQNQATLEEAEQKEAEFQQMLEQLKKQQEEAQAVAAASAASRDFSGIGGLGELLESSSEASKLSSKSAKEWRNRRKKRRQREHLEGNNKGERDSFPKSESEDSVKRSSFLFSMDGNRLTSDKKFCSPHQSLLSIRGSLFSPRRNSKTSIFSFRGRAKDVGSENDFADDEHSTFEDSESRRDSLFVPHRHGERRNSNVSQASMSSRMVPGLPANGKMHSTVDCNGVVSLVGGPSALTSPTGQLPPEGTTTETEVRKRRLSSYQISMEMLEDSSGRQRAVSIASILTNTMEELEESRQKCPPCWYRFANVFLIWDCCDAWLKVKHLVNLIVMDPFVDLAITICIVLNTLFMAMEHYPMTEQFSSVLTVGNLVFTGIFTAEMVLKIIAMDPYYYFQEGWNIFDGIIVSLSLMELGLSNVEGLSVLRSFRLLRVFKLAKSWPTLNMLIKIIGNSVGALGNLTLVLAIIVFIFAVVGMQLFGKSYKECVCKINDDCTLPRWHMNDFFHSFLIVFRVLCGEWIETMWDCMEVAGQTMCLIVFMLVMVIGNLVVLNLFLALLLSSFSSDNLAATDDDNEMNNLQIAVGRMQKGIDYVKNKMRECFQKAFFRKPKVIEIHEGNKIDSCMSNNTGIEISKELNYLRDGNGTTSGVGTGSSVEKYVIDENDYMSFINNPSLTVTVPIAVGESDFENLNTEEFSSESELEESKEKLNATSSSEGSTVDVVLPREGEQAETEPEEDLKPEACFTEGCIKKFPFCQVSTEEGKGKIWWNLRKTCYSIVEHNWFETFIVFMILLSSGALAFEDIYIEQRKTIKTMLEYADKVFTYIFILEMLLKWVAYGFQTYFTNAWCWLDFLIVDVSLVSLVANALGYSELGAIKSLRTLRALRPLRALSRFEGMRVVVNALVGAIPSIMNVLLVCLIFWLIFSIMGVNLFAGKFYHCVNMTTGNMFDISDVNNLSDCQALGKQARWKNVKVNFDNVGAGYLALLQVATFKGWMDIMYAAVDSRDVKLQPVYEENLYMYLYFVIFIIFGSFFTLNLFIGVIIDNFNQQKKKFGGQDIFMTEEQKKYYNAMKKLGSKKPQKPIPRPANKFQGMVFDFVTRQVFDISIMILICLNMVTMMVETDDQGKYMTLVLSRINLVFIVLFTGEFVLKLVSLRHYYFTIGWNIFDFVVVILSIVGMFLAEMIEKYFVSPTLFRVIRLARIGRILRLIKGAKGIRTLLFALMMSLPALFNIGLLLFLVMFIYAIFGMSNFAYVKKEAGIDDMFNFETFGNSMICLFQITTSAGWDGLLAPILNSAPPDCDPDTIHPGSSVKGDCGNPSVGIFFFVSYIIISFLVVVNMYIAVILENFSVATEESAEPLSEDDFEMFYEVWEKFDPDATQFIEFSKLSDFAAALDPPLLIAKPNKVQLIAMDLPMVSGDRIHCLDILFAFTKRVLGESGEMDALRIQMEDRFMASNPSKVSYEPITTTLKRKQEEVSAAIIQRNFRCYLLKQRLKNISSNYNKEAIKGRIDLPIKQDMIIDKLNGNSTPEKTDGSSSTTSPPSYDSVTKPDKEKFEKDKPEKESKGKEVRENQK
T2 sequence (Q9NY46 whole entry): as above
T1 sequence (Q14524 whole entry): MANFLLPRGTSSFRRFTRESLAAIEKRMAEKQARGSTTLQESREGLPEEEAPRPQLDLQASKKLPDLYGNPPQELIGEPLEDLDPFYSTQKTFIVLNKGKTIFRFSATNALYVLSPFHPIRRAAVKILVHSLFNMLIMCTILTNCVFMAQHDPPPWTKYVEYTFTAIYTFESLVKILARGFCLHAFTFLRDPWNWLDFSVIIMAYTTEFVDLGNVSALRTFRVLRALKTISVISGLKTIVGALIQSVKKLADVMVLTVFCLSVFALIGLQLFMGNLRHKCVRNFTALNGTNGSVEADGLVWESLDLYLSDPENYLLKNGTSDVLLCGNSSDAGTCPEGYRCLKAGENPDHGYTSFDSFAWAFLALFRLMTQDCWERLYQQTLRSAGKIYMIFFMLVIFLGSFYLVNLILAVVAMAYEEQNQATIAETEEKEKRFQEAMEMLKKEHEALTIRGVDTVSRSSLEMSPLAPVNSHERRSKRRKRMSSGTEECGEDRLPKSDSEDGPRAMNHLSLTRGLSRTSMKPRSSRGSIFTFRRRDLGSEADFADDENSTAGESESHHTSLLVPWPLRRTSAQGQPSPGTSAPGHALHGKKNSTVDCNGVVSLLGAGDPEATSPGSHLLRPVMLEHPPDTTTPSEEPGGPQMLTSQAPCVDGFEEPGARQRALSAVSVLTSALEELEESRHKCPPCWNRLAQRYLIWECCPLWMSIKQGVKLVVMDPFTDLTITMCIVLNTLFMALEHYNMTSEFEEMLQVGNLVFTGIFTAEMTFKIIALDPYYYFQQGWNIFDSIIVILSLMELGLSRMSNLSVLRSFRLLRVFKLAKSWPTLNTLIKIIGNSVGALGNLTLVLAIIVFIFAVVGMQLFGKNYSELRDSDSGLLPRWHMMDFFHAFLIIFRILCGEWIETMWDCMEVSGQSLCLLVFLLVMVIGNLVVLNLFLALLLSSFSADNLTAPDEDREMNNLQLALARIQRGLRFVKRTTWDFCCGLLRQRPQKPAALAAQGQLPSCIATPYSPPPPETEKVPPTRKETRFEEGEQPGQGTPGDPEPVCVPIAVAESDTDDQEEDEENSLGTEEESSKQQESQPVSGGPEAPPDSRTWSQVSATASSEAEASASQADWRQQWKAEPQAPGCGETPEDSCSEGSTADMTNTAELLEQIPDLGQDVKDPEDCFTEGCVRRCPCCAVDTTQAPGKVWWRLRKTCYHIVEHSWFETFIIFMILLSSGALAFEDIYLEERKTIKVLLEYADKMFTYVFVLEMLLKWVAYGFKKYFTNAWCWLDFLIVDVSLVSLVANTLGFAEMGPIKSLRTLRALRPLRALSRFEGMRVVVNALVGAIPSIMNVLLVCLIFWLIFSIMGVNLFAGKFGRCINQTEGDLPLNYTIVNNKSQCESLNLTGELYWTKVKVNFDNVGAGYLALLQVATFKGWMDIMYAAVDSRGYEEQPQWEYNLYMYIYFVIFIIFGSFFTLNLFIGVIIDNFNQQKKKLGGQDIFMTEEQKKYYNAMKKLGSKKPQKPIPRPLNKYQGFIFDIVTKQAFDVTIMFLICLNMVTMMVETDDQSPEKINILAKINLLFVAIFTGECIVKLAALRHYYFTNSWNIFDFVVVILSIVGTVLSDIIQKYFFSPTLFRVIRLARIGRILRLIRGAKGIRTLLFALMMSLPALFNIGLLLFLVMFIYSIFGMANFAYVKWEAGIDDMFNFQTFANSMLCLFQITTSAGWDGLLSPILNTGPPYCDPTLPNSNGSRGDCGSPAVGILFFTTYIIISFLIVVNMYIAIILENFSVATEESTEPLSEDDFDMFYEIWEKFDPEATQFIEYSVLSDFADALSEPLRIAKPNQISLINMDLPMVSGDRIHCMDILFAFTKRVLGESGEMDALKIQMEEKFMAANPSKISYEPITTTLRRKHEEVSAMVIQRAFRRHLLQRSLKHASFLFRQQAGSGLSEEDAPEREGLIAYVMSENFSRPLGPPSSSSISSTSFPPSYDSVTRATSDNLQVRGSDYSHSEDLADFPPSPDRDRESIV

CC(=O)Nc1cc(C(=O)NC(C)c2ccc(OCC(F)(F)F)nc2)ccn1 (single isomer, unassigned; (-)) [Example 1, (−)-2-acetamido-N-(1-(6-(2,2,2-trifluoroethoxy)pyridin-3-yl)ethyl)isonicotinamide]
IC50 [1]: > 30 µM
IC50 [2]: 2800 nM
Ki [3]: 1500 nM
